The text below walks through data of patent publication US7605272B2, “IGF-1R inhibitor” (Kyowa Hakko Kirin Co., Ltd., priority 2005, dated 2009).

Like-named read-outs stand apart in the source and are kept apart here.

In one test the test system is NCI-H929. Briefly: Cytostatic activity on human multiple myeloma cell line NCI-H929 (WST-1). It is filed as cell-based. Particulars: for inhibition at 1 µM: Homo sapiens, NCI-H929, 72 h, read-out: cytostatic rate (%) H929 (1 μmol/L). In outline: (§1)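 Cytostatic rate is 100 minus % growth relative to DMSO-only wells (100%) and blank wells (0%), read by WST-1 absorbance at 450/690 nm after 2 h. Compound at 1 or 10 μmol/L final was applied for 72 h at 37 °C to cells seeded 24 h earlier.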

For another test, the system named is KMS-11. As to the kind of experiment: Cytostatic activity on human multiple myeloma cell line KMS-11 (WST-1). It is filed as cell-based. The following applies: for inhibition at 1 µM: Homo sapiens, KMS-11, 72 h, read-out: cytostatic rate (%) KMS-11 (1 μmol/L). Summed up: as §1
For orientation: Tetrazolium dyes change colour on reduction, which living cells bring about.

The next test addresses T1, IGF-1R (Homo sapiens, UniProt P08069).
T1 construct: purchased Upstate Co. 14-465
Briefly: IGF-1R inhibitory activity (kinase reaction, time-resolved fluoroimmunoassay). It is filed as biochemical. The following applies: IGF-1R active recombinant enzyme, test compound 10 μmol/L. In outline:
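Compounds were tested at a single 10 μmol/L concentration. Each was incubated with recombinant IGF-1R (200 μg/L), 10 mmol/L ATP, MgCl2/MnCl2 and Na3VO4 (pH 7.5) on immobilized poly(Glu-Tyr) peptide for 30 min at 24° C. Eu-anti-phosphotyrosine time-resolved fluorescence (340/615 nm) gave relative activity against no-compound and no-enzyme wells, reported as % inhibition.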

The mark [1] stands for this setting: NCI-H929 cells, test compound 1 μmol/L, WST-1.
Where [2] appears, read: KMS-11 cells, test compound 1 μmol/L, WST-1.

T1 sequence (P08069 959-1367 limits assumed): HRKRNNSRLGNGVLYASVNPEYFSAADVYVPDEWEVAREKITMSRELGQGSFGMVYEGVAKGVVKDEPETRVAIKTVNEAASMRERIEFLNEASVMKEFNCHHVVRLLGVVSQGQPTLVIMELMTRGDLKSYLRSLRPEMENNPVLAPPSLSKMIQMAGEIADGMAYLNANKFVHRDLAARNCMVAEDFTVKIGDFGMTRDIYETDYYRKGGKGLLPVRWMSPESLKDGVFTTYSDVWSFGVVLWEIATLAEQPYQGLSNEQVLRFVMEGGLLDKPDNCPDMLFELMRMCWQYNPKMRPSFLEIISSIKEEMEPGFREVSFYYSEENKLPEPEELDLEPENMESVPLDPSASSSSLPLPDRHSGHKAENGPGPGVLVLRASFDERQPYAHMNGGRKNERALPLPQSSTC

Take `COc1cc(/C=C/c2n[nH]c3ccccc23)c(NC(=O)c2sccc2C)cc1OCCN1CCOCC1` [Compound 293, (E)-N-{2-[2-(1H-indazol-3-yl)vinyl]-4-methoxy-5-[2-(morpholin-4-yl)ethoxy]phenyl}-3-methylthiophene-2-carboxamide]: the inhibition at 1 µM in the test with NCI-H929 (1 μmol/L, 72 hours) stood at 110%; in the test on KMS-11 (1 μmol/L, 72 hours), 119%. Moreover, the inhibition at 10 µM on IGF-1R was 98.9%.
The corresponding values for `Cc1ccsc1C(=O)Nc1cc(CN2CCC(N(C)C)C2)ccc1/C=C/c1n[nH]c2ccccc12` (stereo not drawn) [Compound 294, (E)-N-{5-[3-(dimethylamino)pyrrolidin-1-ylmethyl]-2-[2-(1H-indazol-3-yl)vinyl]phenyl}-3-methylthiophene-2-carboxamide] are 118%, 116% and 98.2%.
The corresponding values for `Cc1ccsc1C(=O)Nc1cc(C(=O)N2CCC(N(C)C)C2)ccc1/C=C/c1n[nH]c2ccccc12` (stereo not drawn) [Compound 295, (E)-N-{5-[3-(dimethylamino)pyrrolidin-1-ylcarbonyl]-2-[2-(1H-indazol-3-yl)vinyl]phenyl}-3-methylthiophene-2-carboxamide] are 118%, 118% and 97.2%.
The matching figures for `Cc1ccsc1C(=O)Nc1cc(CN2CCC(N3CCOCC3)CC2)ccc1/C=C/c1n[nH]c2ccccc12` [Compound 296, (E)-N-{2-[2-(1H-indazol-3-yl)vinyl]-5-[4-(morpholin-4-yl)piperidin-1-ylmethyl]phenyl}-3-methylthiophene-2-carboxamide]: 117%, 112% and 99.9%.
Take `Cc1ccsc1C(=O)Nc1cc(C(=O)N(C)C2CCNCC2)ccc1/C=C/c1n[nH]c2ccccc12` [Compound 297, (E)-N-{2-[2-(1H-indazol-3-yl)vinyl]-5-[N-methyl-N-(piperidine-4-yl)carbamoyl]phenyl}-3-methylthiophene-2-carboxamide]: the inhibition at 1 µM with NCI-H929 (1 μmol/L, 72 hours) is 116%; in the test with KMS-11 (1 μmol/L, 72 hours) it was 94.5%. On IGF-1R, the inhibition at 10 µM was 101%.
`COCCN(C)CCCOc1cc(NC(=O)c2sccc2C)c(/C=C/c2n[nH]c3ccccc23)cc1OC` [Compound 298, (E)-N-{2-[2-(1H-indazol-3-yl)vinyl]-4-methoxy-5-{3-[N-(2-methoxyethyl)methylamino]propyloxy}phenyl}-3-methylthiophene-2-carboxamide]: the inhibition at 1 µM in the test on NCI-H929 (1 μmol/L, 72 hours) stood at 117%; with KMS-11 (1 μmol/L, 72 hours), 110%. Besides, the inhibition at 10 µM at IGF-1R is 94.2%.
The corresponding values for `CCN(CC)CCCOc1cc(NC(=O)c2sccc2C)c(/C=C/c2n[nH]c3ccccc23)cc1OC` [Compound 300, (E)-N-{5-[3-(diethylamino)propyloxy]-2-[2-(1H-indazol-3-yl)vinyl]-4-methoxyphenyl}-3-methylthiophene-2-carboxamide] are 119%, 116% and 97.2%.
The matching figures for `CC(=O)NC1CCN(C(=O)c2ccc(/C=C/c3n[nH]c4ccccc34)c(NC(=O)c3sccc3C)c2)CC1` [Compound 301, (E)-N-{5-[4-(acetylamino)piperidin-1-ylcarbonyl]-2-[2-(1H-indazol-3-yl)vinyl]phenyl}-3-methylthiophene-2-carboxamide]: 119%, 100% and 98.3%.
The matching figures for `Cc1ccsc1C(=O)Nc1cc(CN2CCN(C[C@H](O)CO)CC2)ccc1/C=C/c1n[nH]c2ccccc12` [Compound 302, (E)-(S)—N-{5-[4-(2,3-dihydroxypropyl)piperazin-1-ylmethyl]-2-[2-(1H-indazol-3-yl)vinyl]phenyl}-3-methylthiophene-2-carboxamide]: 115%, 99.4% and 101%.
For `CC(=O)N1CCC(NC(=O)c2ccc(/C=C/c3n[nH]c4ccccc34)c(NC(=O)c3sccc3C)c2)CC1` [Compound 303, (E)-N-{5-[N-(1-acetylpiperidin-4-yl)carbamoyl]-2-[2-(1H-indazol-3-yl)vinyl]phenyl}-3-methylthiophene-2-carboxamide], the inhibition at 1 µM in the test on NCI-H929 (1 μmol/L, 72 hours) came to 115%; with KMS-11 (1 μmol/L, 72 hours), 106%. Further, at IGF-1R, the inhibition at 10 µM is 100%.
The corresponding values for `COCCCN1CCN(Cc2ccc(/C=C/c3n[nH]c4ccccc34)c(NC(=O)c3sccc3C)c2)CC1` [Compound 304, (E)-N-{2-[2-(1H-indazol-3-yl)vinyl]-5-[4-(3-methoxypropyl)piperazin-1-ylmethyl]phenyl}-3-methylthiophene-2-carboxamide] are 115%, 105% and 102%.
As for `CN(CCO)c1ccc(/C=C/c2n[nH]c3ccccc23)c(NC(=O)c2cccn2C)c1` [Compound 305, (E)-N-{5-[N-(2-hydroxyethyl)methylamino]-2-[2-(1H-indazol-3-yl)vinyl]phenyl}-1-methyl-1H-pyrrole-2-carboxamide], the figures for the inhibition at 1 µM with NCI-H929 (setting [1]) and with KMS-11 (setting [2]) were 118% and 110%, respectively. Moreover, the inhibition at 10 µM at IGF-1R stood at 100%.
The matching figures for `Nc1cccc2c1C(=O)N(c1cc(CN3CCN(CCCO)CC3)ccc1/C=C/c1n[nH]c3ccccc13)C2=O` [Compound 306, (E)-4-amino-2-{5-[4-(3-hydroxypropyl)piperazin-1-ylmethyl]-2-[2-(1H-indazol-3-yl)vinyl]phenyl}isoindole-1,3-dione]: 116%, 112% and 100%.
The matching figures for `Nc1cccc2c1C(=O)N(c1cc(CN3CCN(CCO)CC3)ccc1/C=C/c1n[nH]c3ccccc13)C2=O` [Compound 307, (E)-4-amino-2-{5-[4-(2-hydroxyethyl)piperazin-1-ylmethyl]-2-[2-(1H-indazol-3-yl)vinyl]phenyl}isoindole-1,3-dione]: 114%, 110% and 100%.
`Cn1cccc1C(=O)Nc1cc(N(CCO)CCN2CCOCC2)ccc1/C=C/c1n[nH]c2ccccc12` [Compound 308, (E)-{5-[N-(2-hydroxyethyl)-2-(morpholin-4-yl)ethylamino]-2-[2-(1H-indazol-3-yl)vinyl]phenyl}-1-methyl-1H-pyrrole-2-carboxamide]: the “cytostatic rate (%) H929 (1 μmol/L)” value in the test with NCI-H929 (setting [1]) came to 118.3%. Further, the “cytostatic rate (%) KMS-11 (1 μmol/L)” value with KMS-11 (setting [2]) is given as 128.1%. Besides, the “inhibitory activity (%) at 10 μmol/L” value at IGF-1R is 99.1%.
Consider `COCCCN1CCN(C(=O)c2ccc(/C=C/c3n[nH]c4ccccc34)c(N3C(=O)c4cccc(N)c4C3=O)c2)CC1` [Compound 309, (E)-4-amino-2-{2-[2-(1H-indazol-3-yl)vinyl]-5-[4-(3-methoxypropyl)piperazin-1-ylcarbonyl]phenyl}isoindole-1,3-dione], for which the results for the inhibition at 1 µM with NCI-H929 (setting [1]) and with KMS-11 (setting [2]) were 115% and 113%, respectively. For the same compound, at IGF-1R, the inhibition at 10 µM came out at 97.1%.
The corresponding values for `Cc1ccsc1C(=O)Nc1cc(CN2CCC(CCO)CC2)ccc1/C=C/c1n[nH]c2ccccc12` [Compound 311, (E)-N-{5-[4-(2-hydroxyethyl)piperidin-1-ylmethyl]-2-[2-(1H-indazol-3-yl)vinyl]phenyl}-3-methylthiophene-2-carboxamide] are 117%, 111% and 104%.
For `CC(=O)CCN1CCN(Cc2ccc(/C=C/c3n[nH]c4ccccc34)c(NC(=O)c3sccc3C)c2)CC1` [Compound 313, (E)-{2-[2-(1H-indazol-3-yl)vinyl]-5-[4-(3-oxobutyl)piperazin-1-ylmethyl]phenyl}-3-methylthiophene-2-carboxamide], the “cytostatic rate (%) H929 (1 μmol/L)” value in the test with NCI-H929 (setting [1]) amounted to 115.2%. Further, in the test on KMS-11 (setting [2]), the “cytostatic rate (%) KMS-11 (1 μmol/L)” value stood at 107.9%. Also, the “inhibitory activity (%) at 10 μmol/L” value at IGF-1R turned out to be 100.7%.
As for `CN1CCN(C(=O)c2ccc(/C=C/c3n[nH]c4ccccc34)c(N3C(=O)c4cccc(N)c4C3=O)c2)CC1` [Compound 315, (E)-4-amino-2-{2-[2-(1H-indazol-3-yl)vinyl]-5-(4-methylpiperazin-1-ylcarbonyl)phenyl}isoindole-1,3-dione], the figures for the inhibition at 1 µM in the test on NCI-H929 (setting [1]) and with KMS-11 (setting [2]) were 113% and 106%, respectively. Moreover, on IGF-1R, the inhibition at 10 µM worked out at 106%.
As to `Nc1cccc2c1C(=O)N(c1cc(C(=O)N3CCC(N4CCOCC4)CC3)ccc1/C=C/c1n[nH]c3ccccc13)C2=O` [Compound 317, (E)-4-amino-2-{2-[2-(1H-indazol-3-yl)vinyl]-5-[4-(morpholin-4-yl)piperidin-1-ylcarbonyl]phenyl}isoindole-1,3-dione], the values for the inhibition at 1 µM in the test with NCI-H929 (setting [1]) and in the test with KMS-11 (setting [2]) were 114% and 105%, respectively. The inhibition at 10 µM at IGF-1R came to 103%.
Regarding `Cc1ccsc1C(=O)Nc1cc(CN2CCN(CCN3CCOCC3)CC2)ccc1/C=C/c1n[nH]c2ccccc12` [Compound 319], in the test with NCI-H929 (setting [1]), the “cytostatic rate (%) H929 (1 μmol/L)” value was 122.4%. The “cytostatic rate (%) KMS-11 (1 μmol/L)” value with KMS-11 (setting [2]) worked out at 102.6%. In addition, the “inhibitory activity (%) at 10 μmol/L” value at IGF-1R is recorded as 100.4%.
